The results in this text go back to ChEMBL document CHEMBL4138296, “Nonacidic Chemotype Possessing N-Acylated Piperidine Moiety as Potent Farnesoid X Receptor (FXR) Antagonists” (ACS Med Chem Lett, 2018).

Activity calls are given as the source filed them. No cut-off for these calls is given here.

The target of series [1] is T1, Oxysterols receptor LXR-alpha (Homo sapiens) (UniProt Q13133).
T1 sequence (whole entry): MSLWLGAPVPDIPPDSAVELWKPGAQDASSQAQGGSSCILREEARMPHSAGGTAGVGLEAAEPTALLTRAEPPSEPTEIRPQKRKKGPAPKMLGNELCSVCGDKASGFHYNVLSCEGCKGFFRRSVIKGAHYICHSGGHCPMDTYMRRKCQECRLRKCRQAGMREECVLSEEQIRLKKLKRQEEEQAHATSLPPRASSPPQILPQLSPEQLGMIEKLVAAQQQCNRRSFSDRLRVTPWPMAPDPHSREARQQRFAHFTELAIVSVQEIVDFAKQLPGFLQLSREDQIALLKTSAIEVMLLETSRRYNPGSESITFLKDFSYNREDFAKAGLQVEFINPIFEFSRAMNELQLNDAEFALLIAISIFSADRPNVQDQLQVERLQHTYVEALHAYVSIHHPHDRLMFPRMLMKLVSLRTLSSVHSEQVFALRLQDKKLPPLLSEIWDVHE
Put plainly: Agonist activity at LXRalpha (unknown origin) at 1 uM by luciferase reporter gene assay.

The target in series [2] is T2, Retinoic acid receptor alpha (Homo sapiens) (UniProt P10276).
T2 sequence (whole entry): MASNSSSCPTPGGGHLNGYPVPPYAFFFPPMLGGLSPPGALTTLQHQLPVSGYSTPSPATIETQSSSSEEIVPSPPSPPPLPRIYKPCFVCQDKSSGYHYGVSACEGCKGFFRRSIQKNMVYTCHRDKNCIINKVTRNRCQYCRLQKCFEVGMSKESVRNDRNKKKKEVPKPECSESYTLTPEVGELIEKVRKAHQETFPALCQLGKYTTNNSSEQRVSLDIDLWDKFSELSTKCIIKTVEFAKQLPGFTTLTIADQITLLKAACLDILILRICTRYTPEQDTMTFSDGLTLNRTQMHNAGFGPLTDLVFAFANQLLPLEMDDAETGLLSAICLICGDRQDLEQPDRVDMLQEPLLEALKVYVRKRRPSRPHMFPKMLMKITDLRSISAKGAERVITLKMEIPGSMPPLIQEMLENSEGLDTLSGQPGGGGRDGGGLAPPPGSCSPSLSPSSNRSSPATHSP
Put plainly: Antagonist activity at RARalpha (unknown origin) assessed as inhibition of ATRA-induced response at 1 uM by luciferase reporter gene assay. For orientation: A reporter such as luciferase makes a cellular process visible.

In another series the target is T3, Bile acid receptor (Homo sapiens, UniProt Q96RI1).
T3 sequence (Q96RI1 whole entry): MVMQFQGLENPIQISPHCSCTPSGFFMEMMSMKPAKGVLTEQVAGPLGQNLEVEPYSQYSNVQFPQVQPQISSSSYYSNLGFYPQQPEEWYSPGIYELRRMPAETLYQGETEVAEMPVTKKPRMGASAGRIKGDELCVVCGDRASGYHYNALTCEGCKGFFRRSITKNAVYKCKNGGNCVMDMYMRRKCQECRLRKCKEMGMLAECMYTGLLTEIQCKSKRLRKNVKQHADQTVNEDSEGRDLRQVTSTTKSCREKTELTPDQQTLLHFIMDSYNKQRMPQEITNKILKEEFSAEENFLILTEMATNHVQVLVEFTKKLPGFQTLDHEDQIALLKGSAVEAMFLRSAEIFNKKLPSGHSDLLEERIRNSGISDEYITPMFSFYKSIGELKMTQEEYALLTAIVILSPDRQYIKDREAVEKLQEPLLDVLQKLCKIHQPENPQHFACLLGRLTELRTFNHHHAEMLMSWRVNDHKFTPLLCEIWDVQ
In words: Antagonist activity at FXR in human HepG2 cells assessed as inhibition of CYP3A4 mRNA expression level at 0.02 to 2 uM after 48 hrs by RT-PCR analysis. In kind it is ADME, cell-based. Particulars: hepg2, 48 h.

Regarding `Cc1ccc2nc([C@H](CC3CCN(C(=O)C(C)C)CC3)N3C(=O)CN(c4ccc(Oc5ccccc5)cc4)C3=O)n(C)c2c1`, the result in series [1] was inactive. Besides, the inhibition entry in series [2] was “inactive”. The “inhibition (INH)” value on Bile acid receptor is given as “Not Active”.
